From paper PMC11631053, “A receptor-based assay to study the sweet and bitter tastes of sweeteners and binary sweet blends: the SWEET project” (Chemical Senses, 2024)
Read-outs that look alike come from different tables or passages of the source.

Tests used:
TAS2R41 = target: T1, TAS2R41 (Homo sapiens, UniProt P59536); assay: Calcium mobilization assay, HEK293T-Gα16gust44 cells expressing TAS2R41; conditions: maximal concentration tested: sucralose 100 mM, neotame 30 µM, Ace-K 300 mM, RebA 4 mM, RebM 4 mM, mogroside V 5 mM, erythritol 200 mM, D-allulose 500 mM, thaumatin 100 mM
T1 sequence (P59536 1-307): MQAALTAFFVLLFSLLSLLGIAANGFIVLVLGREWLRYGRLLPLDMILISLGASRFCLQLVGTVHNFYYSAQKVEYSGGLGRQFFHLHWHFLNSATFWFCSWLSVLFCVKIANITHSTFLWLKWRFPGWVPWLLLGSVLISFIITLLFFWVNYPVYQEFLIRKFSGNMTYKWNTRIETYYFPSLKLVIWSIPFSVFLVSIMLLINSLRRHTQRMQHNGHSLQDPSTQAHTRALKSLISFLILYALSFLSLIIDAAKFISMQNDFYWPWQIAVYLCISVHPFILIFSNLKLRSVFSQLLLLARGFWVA
Procedure: (§1) Different concentration ranges were tested depending on the injected sweet compound. […] All of the concentration-receptor combinations were measured in triplicate, and each experiment was repeated at least 3 times. The Ca^2+ change was expressed as a fractional change in fluorescent light intensity: ΔF/F = (F − F0)/F0, where F was the fluorescent light intensity at each point, and F0 was the value of fluorescent light emitted prior to stimulus application. To calculate dose–response relationships, the changes in fluorescence upon stimulus application were averaged, mock-subtracted and baseline-corrected. The resulting obtained dose–response data were adjusted by using a 4-parameter logistic equation. The half-maximal effective concentration (EC50) was calculated by using SigmaPlot software (Systat Software, San Jose, CA, USA) as described in supplemental Supplementary Figs. S1, S2, and S3.

TAS1R2/TAS1R3 = target: T2, TAS1R2/TAS1R3 (Homo sapiens, UniProt Q7RTX0+Q8TE23); assay: Calcium mobilization assay, HEK293T-Gα16gust44 cells expressing the sweet taste receptor
T2 sequence (Q8TE23 20-839): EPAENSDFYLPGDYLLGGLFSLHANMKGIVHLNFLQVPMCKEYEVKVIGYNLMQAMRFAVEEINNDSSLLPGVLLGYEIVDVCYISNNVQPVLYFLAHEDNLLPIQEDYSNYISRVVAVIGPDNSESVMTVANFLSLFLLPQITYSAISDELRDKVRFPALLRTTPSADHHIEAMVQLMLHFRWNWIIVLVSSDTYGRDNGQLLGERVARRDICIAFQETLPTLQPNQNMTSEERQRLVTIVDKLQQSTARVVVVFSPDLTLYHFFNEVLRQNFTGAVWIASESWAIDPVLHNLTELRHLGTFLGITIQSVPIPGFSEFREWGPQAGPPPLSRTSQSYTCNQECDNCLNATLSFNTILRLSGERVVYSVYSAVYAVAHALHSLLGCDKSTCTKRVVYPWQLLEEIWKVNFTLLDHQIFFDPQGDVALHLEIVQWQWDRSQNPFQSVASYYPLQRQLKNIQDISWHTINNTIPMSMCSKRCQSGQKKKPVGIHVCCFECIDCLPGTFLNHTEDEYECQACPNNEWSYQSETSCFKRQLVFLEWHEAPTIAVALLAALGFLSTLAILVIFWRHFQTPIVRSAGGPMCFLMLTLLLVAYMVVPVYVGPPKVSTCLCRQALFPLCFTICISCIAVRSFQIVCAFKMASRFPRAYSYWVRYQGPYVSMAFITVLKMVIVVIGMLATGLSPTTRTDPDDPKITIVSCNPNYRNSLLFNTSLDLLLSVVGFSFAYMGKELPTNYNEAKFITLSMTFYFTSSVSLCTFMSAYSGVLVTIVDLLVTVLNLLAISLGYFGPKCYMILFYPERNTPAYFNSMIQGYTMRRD
T2 sequence (Q7RTX0 21-852): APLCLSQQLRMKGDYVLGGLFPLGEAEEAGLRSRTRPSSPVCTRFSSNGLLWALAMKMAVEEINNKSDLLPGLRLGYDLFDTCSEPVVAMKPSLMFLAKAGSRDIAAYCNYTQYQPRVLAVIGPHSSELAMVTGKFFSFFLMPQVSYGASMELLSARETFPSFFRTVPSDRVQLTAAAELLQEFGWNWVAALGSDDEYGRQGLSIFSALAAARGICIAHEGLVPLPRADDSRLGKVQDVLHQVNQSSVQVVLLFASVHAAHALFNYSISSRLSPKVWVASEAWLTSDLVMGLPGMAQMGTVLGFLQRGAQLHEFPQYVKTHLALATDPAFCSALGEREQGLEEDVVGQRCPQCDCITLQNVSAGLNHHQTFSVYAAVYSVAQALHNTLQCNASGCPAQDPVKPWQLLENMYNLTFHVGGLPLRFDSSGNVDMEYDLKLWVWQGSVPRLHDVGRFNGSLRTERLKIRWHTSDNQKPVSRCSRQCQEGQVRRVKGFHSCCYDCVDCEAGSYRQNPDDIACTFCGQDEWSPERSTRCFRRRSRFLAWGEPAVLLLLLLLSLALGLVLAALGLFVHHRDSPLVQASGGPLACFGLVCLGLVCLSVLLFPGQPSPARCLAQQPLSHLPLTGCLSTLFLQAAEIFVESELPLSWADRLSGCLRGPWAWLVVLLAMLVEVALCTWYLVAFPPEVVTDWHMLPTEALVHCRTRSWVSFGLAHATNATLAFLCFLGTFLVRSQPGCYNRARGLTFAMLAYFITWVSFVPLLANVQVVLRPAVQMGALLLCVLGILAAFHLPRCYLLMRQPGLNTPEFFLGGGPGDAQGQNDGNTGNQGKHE
Procedure: (§2) Different concentration ranges were tested depending on the injected sweet compound. […] All of the concentration-receptor combinations were measured in triplicate, and each experiment was repeated at least 3 times. The Ca^2+ change was expressed as a fractional change in fluorescent light intensity: ΔF/F = (F − F0)/F0, where F was the fluorescent light intensity at each point, and F0 was the value of fluorescent light emitted prior to stimulus application. To calculate dose–response relationships, the changes in fluorescence upon stimulus application were averaged, mock-subtracted and baseline-corrected. The resulting obtained dose–response data were adjusted by using a 4-parameter logistic equation.

TAS2R14 = target: T3, TAS2R14 (Homo sapiens, UniProt Q9NYV8); assay: Calcium mobilization assay, HEK293T-Gα16gust44 cells expressing TAS2R14; conditions: maximal concentration tested: sucralose 100 mM, neotame 30 µM, Ace-K 300 mM, RebA 4 mM, RebM 4 mM, mogroside V 5 mM, erythritol 200 mM, D-allulose 500 mM, thaumatin 100 mM
T3 sequence (Q9NYV8 1-317): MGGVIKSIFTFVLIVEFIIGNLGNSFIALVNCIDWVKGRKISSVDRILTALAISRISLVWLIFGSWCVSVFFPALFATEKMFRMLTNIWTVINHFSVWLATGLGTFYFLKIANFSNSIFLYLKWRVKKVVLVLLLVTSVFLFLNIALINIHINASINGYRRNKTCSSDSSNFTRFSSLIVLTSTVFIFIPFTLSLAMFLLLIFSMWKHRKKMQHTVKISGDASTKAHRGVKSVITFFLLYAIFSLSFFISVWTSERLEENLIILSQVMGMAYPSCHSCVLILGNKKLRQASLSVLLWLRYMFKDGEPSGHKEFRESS
Procedure: as §2

TAS2R50 = target: T4, TAS2R50 (Homo sapiens, UniProt P59544); assay: Calcium mobilization assay, HEK293T-Gα16gust44 cells expressing TAS2R50; conditions: maximal concentration tested: sucralose 100 mM, neotame 30 µM, Ace-K 300 mM, RebA 4 mM, RebM 4 mM, mogroside V 5 mM, erythritol 200 mM, D-allulose 500 mM, thaumatin 100 mM
T4 sequence (P59544 1-299): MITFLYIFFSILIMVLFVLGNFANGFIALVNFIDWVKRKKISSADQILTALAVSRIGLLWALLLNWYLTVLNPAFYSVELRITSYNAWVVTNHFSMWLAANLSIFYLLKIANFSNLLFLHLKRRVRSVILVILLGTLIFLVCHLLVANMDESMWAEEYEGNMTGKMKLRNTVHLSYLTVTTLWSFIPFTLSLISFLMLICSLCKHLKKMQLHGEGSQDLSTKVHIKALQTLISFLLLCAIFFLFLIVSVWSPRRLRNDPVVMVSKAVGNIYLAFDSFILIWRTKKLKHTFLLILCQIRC
Procedure: as §1

[1] = maximal signal amplitude, sweet compound alone
[2] = mogroside V in the presence of thaumatin 0 µM
[3] = read-out: EC50 value, sweet compound alone
[4] = neotame in the presence of D-allulose 0 mM
[5] = RebM in the presence of mogroside V 0 µM

Row | Compound | Response of TAS2R41 (TAS2R41) | Max ΔF/F0 (TAS1R2/TAS1R3; [1]) | EC50 (TAS1R2/TAS1R3; [3]) [µM] | Response of TAS2R14 (TAS2R14) | Response of TAS2R50 (TAS2R50) | other results
1 | C[C@H](CC[C@@H](O[C@@H]1O[C@H](CO[C@@H]2O[C@H](CO)[C@@H](O)[C@H](O)[C@H]2O)[C@@H](O)[C@H](O)[C@H]1O[C@@H]1O[C@H](CO)[C@@H](O)[C@H](O)[C@H]1O)C(C)(C)O)[C@H]1CC[C@@]2(C)[C@@H]3CC=C4[C@@H](CC[C@H](O[C@@H]5O[C@H](CO[C@@H]6O[C@H](CO)[C@@H](O)[C@H](O)[C@H]6O)[C@@H](O)[C@H](O)[C@H]5O)C4(C)C)[C@]3(C)[C@H](O)C[C@]12C [Mogroside V, mogroside V] | − | 0.14 ± 0.01 | 23 ± 2 | − | − | concentration of saturation of the sweet taste receptor (TAS1R2/TAS1R3): ~500 µM; decrease in the EC50 values (TAS1R2/TAS1R3; in the presence of thaumatin 0.3 to 10 µM): 3 fold; decrease in the EC50 value (TAS1R2/TAS1R3; mogroside V in the presence of 10 µM thaumatin): 4 fold; EC50 (TAS1R2/TAS1R3; [2]): 29 ± 4 µM; Max ΔF/F0 (TAS1R2/TAS1R3; [2]): 0.14 ± 0.01; Max ΔF/F0 (TAS1R2/TAS1R3; mogroside V in the presence of thaumatin 0.03 µM): 0.19 ± 0.01; Max ΔF/F0 (TAS1R2/TAS1R3; mogroside V in the presence of thaumatin 1 µM): 0.18 ± 0.04; Max ΔF/F0 (TAS1R2/TAS1R3; mogroside V in the presence of thaumatin 3 µM): 0.18 ± 0.01; Max ΔF/F0 (TAS1R2/TAS1R3; mogroside V in the presence of thaumatin 10 µM): 0.17 ± 0.01
2 | CC1=CC(=O)NS(=O)(=O)O1 [Ace-K, acesulfame-K] | − |  |  | − | − | EC50 (TAS1R2/TAS1R3): 410 ± 94 µM
3 | COC(=O)[C@H](Cc1ccccc1)NC(=O)[C@H](CC(=O)O)NCCC(C)(C)C [Neotame] | − | 0.16 ± 0.01 | 2.26 ± 0.23 | − | − | EC50 (TAS1R2/TAS1R3; [4]): 2.37 ± 0.34 µM; Max ΔF/F0 (TAS1R2/TAS1R3; [4]): 0.16 ± 0.01; Max ΔF/F0 (TAS1R2/TAS1R3; neotame in the presence of D-allulose 3 mM): 0.17 ± 0.01; Max ΔF/F0 (TAS1R2/TAS1R3; neotame in the presence of D-allulose 10 mM): 0.21 ± 0.01; Max ΔF/F0 (TAS1R2/TAS1R3; neotame in the presence of D-allulose 30 mM): 0.17 ± 0.00; increase in sweetness potency (TAS1R2/TAS1R3; neotame with addition of D-allulose (3 to 30 mM), leftward shift of dose–response curves): approximately 2.5 fold
4 | O=C(CO)[C@H](O)[C@H](O)[C@H](O)CO [D-allulose] | − | 0.50 ± 0.12 |  | + | − | activation of the sweet taste receptor by the compound alone (TAS1R2/TAS1R3; 3 to 30 mM): did not activate the sweet taste receptor
5 | OC[C@H]1O[C@H](O[C@]2(CCl)O[C@H](CCl)[C@@H](O)[C@@H]2O)[C@H](O)[C@@H](O)[C@H]1Cl [Sucralose, sucralose] | − | 0.13 ± 0.01 | 78 ± 11 | − | − | concentration at which maximal signal amplitude is reached (TAS1R2/TAS1R3): below 1 mM; Max ΔF/F0 (TAS1R2/TAS1R3; sucralose in the presence of Ace-K 0 µM): 0.13 ± 0.01; Max ΔF/F0 (TAS1R2/TAS1R3; sucralose in the presence of Ace-K 10 µM): 0.15 ± 0.01; Max ΔF/F0 (TAS1R2/TAS1R3; sucralose in the presence of Ace-K 30 µM): 0.12 ± 0.01; Max ΔF/F0 (TAS1R2/TAS1R3; sucralose in the presence of Ace-K 100 µM): 0.14 ± 0.01

Now from value to compound, other results behind:

Row | Response of TAS2R41 (TAS2R41) | Max ΔF/F0 (TAS1R2/TAS1R3; [1]) | EC50 (TAS1R2/TAS1R3; [3]) [µM] | Response of TAS2R14 (TAS2R14) | Response of TAS2R50 (TAS2R50) | Compound | other results
6 | − | 0.12 ± 0.01 |  | − | − | thaumatin | activation of the sweet taste receptor by the compound alone (TAS1R2/TAS1R3; concentrations less than 3 µM): unable to activate the sweet taste receptor on its own
7 | − | 0.06 ± 0.01 |  | − | − | OC[C@@H](O)[C@@H](O)CO [Erythritol, erythritol] | EC50 (TAS1R2/TAS1R3): 56000 ± 10000 µM
8 | − | 0.16 ± 0.01 | 34 ± 2 | − | − | C=C1C[C@@]23CC[C@H]4[C@@](C)(CCC[C@@]4(C)C(=O)O[C@@H]4O[C@H](CO)[C@@H](O)[C@H](O[C@@H]5O[C@H](CO)[C@@H](O)[C@H](O)[C@H]5O)[C@H]4O[C@@H]4O[C@H](CO)[C@@H](O)[C@H](O)[C@H]4O)[C@@H]2CC[C@]1(O[C@@H]1O[C@H](CO)[C@@H](O)[C@H](O[C@@H]2O[C@H](CO)[C@@H](O)[C@H](O)[C@H]2O)[C@H]1O[C@@H]1O[C@H](CO)[C@@H](O)[C@H](O)[C@H]1O)C3 [RebM, Rebaudioside M] | EC50 (TAS1R2/TAS1R3; [5]): 36 ± 2 µM; Max ΔF/F0 (TAS1R2/TAS1R3; [5]): 0.17 ± 0.01; Max ΔF/F0 (TAS1R2/TAS1R3; RebM in the presence of mogroside V 0.03 µM): 0.16 ± 0.01; Max ΔF/F0 (TAS1R2/TAS1R3; RebM in the presence of mogroside V 1 µM): 0.18 ± 0.01; Max ΔF/F0 (TAS1R2/TAS1R3; RebM in the presence of mogroside V 3 µM): 0.17 ± 0.01; Max ΔF/F0 (TAS1R2/TAS1R3; RebM in the presence of mogroside V 5 µM): 0.12 ± 0.01; Max ΔF/F0 (TAS1R2/TAS1R3; RebM in the presence of mogroside V 10 µM): 0.12 ± 0.01
